From patent US20200017549A1, “NOVEL a4B7 PEPTIDE ANTAGONISTS” (Protagonist Therapeutics, Inc., priority 2013, published 2020)
Bridge positions count the residues as written; N and C are the ends. Square brackets hold non-standard residues; d marks the D form. Peptide text beside a SMILES is read from it. NMeR = CN[C@@H](CCCNC(=N)N)C(=O)O; Pen = CC(C)(S)[C@H](N)C(=O)O

Test: Simulated Intestinal Fluid (SIF) Stability Assay
Format: in vitro ADME
Conditions: for stability in simulated intestinal fluids (SIF): Cys substituted with Pen, compared to SEQ ID NO: 46 with Cys
Description: Simulated Intestinal Fluid (SIF) Stability Assay
Studies were carried out in simulated intestinal fluid (SIF) to evaluate gastric stability of the peptide molecules of the instant invention. SIF was prepared by adding 6.8 g of monobasic potassium phosphate and 10.0 g of pancreatin to 1.0 L of water. After dissolution, the pH was adjusted to 6.8 using NaOH. DMSO stocks (2 mM) were first prepared for the test compounds. Aliquots of the DMSO solutions were dosed into 6 individual tubes, each containing 0.5 mL of SIF, which had been pre-warmed to 37° C.
The final test compound concentration was 20 μM. The vials were kept in a benchtop Thermomixer® for the duration of the experiment. At each time point (0, 5, 10, 20, 40, and 60 minutes), 1.0 mL of acetonitrile containing 1% formic acid was added to one vial to terminate the reaction. Samples were stored at 4° C. until the end of the experiment. After the final timepoint was sampled, the tubes were mixed and then centrifuged at 3,000 rpm for 10 minutes. Aliquots of the supernatant were removed, diluted 1:1 into distilled water containing internal standard, and analyzed by LCMS/MS. Percent remaining at each time point was calculated based on the peak area response ratio of test to compound to internal standard. Time 0 was set to 100%, and all later time points were calculated relative to time 0. Half-lives were calculated by fitting to a first-order exponential decay equation using GraphPad. A small sampling of the results of these studies is provided and discussed in connection FIG. 3, above.

Row | stability in simulated intestinal fluids (SIF) | half-life in SIF (simulated intestinal fluid, pH 6.8, 37° C., N-Me-Arg substituted versus non-methylated variation) | Compound
1 | increased stability significantly | – | CC(=O)N[C@H]1CSSC(C)(C)[C@@H](C(=O)N[C@H](CCCCN)C(N)=O)NC(=O)[C@H](CC(C)C)NC(=O)[C@H]([C@@H](C)O)NC(=O)[C@H](CC(=O)O)NC(=O)[C@H](CO)NC(=O)[C@H](CCCNC(=N)N)N(C)C1=O [SEQ ID NO: 55] (Ac-C[NMeR]SDTL[Pen][dK]-NH2; disulfide 1-7)
2 | increased stability significantly | – | CC(=O)N[C@H]1CSSC(C)(C)[C@@H](C(=O)N[C@@H](CCC(=O)O)C(=O)N[C@H](CCCCN)C(N)=O)NC(=O)[C@H](CC(C)C)NC(=O)[C@H]([C@@H](C)O)NC(=O)[C@H](CC(=O)O)NC(=O)[C@H](CO)NC(=O)[C@H](CCCNC(=N)N)N(C)C1=O [SEQ ID NO: 74] (Ac-C[NMeR]SDTL[Pen]E[dK]-NH2; disulfide 1-7)
3 | increased stability significantly | – | CC(=O)N[C@@H]1C(=O)N(C)[C@@H](CCCNC(=N)N)C(=O)N[C@@H](CO)C(=O)N[C@@H](CC(=O)O)C(=O)N[C@@H]([C@@H](C)O)C(=O)N[C@@H](CC(C)C)C(=O)N[C@H](C(=O)N[C@H](CCCCN)C(N)=O)C(C)(C)SSC1(C)C [SEQ ID NO: 93] (Ac-[Pen][NMeR]SDTL[Pen][dK]-NH2; disulfide 1-7)
4 | – | increased half-life substantially | CC(=O)N[C@H]1CSSC[C@@H](C(N)=O)NC(=O)[C@H](CC(C)C)NC(=O)[C@H]([C@@H](C)O)NC(=O)[C@H](CC(=O)O)NC(=O)[C@H](CO)NC(=O)[C@H](CCCNC(=N)N)N(C)C1=O [SEQ ID NO: 46] (Ac-C[NMeR]SDTLC-NH2; disulfide 1-7)
